Measured values: ChEMBL document CHEMBL1134077, “Synthesis of potent and selective dopamine D(4) antagonists as candidate radioligands” (Bioorg Med Chem Lett, 2001)

Tests used:
D(1A) dopamine receptor = D(1A) dopamine receptor (Rattus norvegicus, UniProt P18901); assay: In vitro binding affinity to cloned rat Dopamine receptor D1 measured by displacement of radioligand [3H]SCH-23,982
[1] = target: Kappa-type opioid receptor (Homo sapiens, UniProt P41145); assay: Binding affinity to cloned Opioid receptor kappa 1
Chain of Kappa-type opioid receptor (P41145 whole entry): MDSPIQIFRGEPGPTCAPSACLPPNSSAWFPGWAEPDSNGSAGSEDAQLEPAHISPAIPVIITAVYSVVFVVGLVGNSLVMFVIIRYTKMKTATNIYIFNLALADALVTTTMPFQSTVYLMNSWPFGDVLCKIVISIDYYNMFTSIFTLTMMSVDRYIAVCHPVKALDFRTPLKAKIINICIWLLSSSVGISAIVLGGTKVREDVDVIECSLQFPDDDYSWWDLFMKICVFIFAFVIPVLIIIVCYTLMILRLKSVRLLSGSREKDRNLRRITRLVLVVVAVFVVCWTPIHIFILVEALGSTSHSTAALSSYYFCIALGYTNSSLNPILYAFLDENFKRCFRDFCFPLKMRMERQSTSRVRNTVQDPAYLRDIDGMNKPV

[2] = target: T1, 5-hydroxytryptamine receptor 1D (Homo sapiens, UniProt P28221); assay: In vitro binding affinity to human 5-hydroxytryptamine 1D receptor
T1 sequence (P28221 whole entry): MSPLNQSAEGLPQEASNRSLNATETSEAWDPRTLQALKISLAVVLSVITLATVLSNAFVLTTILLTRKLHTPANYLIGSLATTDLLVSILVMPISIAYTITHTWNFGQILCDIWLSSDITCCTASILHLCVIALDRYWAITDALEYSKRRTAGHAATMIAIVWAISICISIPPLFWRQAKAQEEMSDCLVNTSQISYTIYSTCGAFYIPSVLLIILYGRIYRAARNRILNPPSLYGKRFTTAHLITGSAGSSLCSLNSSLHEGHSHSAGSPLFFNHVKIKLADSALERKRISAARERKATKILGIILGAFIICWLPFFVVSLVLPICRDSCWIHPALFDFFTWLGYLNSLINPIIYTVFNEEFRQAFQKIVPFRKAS

D(2) dopamine receptor = D(2) dopamine receptor (Rattus norvegicus, UniProt P61169); assay: In vitro binding affinity to rat Dopamine receptor D2 measured by displacement of the radioligand [3H]spiperone
Chain of D(2) dopamine receptor (P61169 whole entry): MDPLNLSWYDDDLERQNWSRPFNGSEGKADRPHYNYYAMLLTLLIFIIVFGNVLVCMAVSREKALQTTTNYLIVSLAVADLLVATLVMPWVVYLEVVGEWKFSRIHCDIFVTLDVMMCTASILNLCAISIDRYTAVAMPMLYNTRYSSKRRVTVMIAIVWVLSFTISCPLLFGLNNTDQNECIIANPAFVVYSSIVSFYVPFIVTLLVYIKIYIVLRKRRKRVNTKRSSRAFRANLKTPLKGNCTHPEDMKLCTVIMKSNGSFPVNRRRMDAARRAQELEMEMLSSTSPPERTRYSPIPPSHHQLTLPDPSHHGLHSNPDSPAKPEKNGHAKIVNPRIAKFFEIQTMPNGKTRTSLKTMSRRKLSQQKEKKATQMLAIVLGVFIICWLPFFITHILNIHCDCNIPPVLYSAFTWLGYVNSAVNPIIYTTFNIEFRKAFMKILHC

Histamine H1 receptor = Histamine H1 receptor (Homo sapiens, UniProt P35367); assay: Binding affinity to cloned Histamine H1 receptor
Chain of Histamine H1 receptor (P35367 whole entry): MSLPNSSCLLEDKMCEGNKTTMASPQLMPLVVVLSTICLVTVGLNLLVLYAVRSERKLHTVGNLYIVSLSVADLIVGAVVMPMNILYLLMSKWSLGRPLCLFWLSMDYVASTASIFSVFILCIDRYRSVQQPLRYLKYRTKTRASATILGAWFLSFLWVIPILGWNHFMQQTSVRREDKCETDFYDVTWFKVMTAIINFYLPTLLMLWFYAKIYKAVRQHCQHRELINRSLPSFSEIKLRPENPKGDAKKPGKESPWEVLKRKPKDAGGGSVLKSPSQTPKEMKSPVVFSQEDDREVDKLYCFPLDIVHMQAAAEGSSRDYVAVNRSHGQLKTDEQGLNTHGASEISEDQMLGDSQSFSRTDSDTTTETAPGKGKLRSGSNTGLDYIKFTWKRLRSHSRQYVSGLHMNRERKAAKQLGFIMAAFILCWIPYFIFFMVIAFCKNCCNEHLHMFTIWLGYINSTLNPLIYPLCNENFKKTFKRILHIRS

[3] = target: 5-hydroxytryptamine receptor 5A (Homo sapiens, UniProt P47898); assay: Binding affinity to cloned human 5-hydroxytryptamine 5A receptor
Chain of 5-hydroxytryptamine receptor 5A (P47898 whole entry): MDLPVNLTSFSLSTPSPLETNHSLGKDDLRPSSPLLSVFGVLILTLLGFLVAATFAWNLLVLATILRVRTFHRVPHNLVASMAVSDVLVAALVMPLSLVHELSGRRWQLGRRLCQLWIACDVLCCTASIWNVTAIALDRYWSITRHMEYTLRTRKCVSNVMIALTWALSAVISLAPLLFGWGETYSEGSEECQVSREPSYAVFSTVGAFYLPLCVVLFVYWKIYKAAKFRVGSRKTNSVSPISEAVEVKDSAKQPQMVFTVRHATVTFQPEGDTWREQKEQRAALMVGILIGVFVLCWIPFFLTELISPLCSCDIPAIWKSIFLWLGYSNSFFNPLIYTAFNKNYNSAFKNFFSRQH

[4] = target: T2, Muscarinic acetylcholine receptor M2 (Homo sapiens, UniProt P08172); assay: Binding affinity to cloned Muscarinic acetylcholine receptor M2
T2 sequence (P08172 whole entry): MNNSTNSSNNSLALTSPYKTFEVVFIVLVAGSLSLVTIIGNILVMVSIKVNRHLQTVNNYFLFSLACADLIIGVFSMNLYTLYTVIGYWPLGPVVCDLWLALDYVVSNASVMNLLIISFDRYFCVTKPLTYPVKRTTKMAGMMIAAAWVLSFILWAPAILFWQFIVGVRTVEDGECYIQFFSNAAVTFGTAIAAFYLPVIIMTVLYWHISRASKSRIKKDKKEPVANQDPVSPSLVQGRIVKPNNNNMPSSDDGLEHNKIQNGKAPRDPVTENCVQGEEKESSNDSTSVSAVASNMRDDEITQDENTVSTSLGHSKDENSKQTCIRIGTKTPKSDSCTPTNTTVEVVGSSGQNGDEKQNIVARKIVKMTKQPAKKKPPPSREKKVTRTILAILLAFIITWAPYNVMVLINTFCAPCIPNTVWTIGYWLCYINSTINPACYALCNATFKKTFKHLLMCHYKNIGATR

[5] = Binding affinity to cloned Nicotinic acetylcholine receptors; design: species or system Rattus norvegicus
[6] = target: Muscarinic acetylcholine receptor M1 (Homo sapiens, UniProt P11229); assay: (§1) Binding affinity to cloned Muscarinic acetylcholine receptor M1
D(4) dopamine receptor = target: T3, D(4) dopamine receptor (Rattus norvegicus, UniProt P30729); assay: In vitro binding affinity to rat Dopamine receptor D4 measured by displacement of the radioligand [3H]spiperone
T3 sequence (P30729 whole entry): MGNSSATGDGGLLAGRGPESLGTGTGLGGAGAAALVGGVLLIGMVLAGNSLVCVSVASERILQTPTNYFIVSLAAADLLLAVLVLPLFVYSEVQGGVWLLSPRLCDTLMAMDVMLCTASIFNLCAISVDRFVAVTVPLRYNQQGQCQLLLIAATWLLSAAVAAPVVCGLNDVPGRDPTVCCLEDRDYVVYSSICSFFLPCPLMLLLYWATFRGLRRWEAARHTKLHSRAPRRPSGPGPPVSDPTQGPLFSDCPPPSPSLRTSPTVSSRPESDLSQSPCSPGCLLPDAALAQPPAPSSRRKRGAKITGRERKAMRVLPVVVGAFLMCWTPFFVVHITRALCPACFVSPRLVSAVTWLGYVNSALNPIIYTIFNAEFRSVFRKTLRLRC

[7] = target: Delta-type opioid receptor (Homo sapiens, UniProt P41143); assay: Binding affinity to cloned Opioid receptor delta 1
Chain of Delta-type opioid receptor (P41143 whole entry): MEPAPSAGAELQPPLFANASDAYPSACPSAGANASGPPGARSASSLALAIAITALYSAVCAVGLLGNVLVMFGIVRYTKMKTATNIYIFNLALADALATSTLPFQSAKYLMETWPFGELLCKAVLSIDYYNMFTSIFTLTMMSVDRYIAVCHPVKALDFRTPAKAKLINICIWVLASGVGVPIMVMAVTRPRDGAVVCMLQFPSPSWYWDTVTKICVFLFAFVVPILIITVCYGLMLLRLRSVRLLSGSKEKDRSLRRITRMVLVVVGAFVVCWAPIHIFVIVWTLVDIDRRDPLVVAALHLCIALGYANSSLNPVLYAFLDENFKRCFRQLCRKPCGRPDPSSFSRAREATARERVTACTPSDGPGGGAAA

[8] = target: Muscarinic acetylcholine receptor M3 (Homo sapiens, UniProt P20309); assay: Binding affinity to cloned Muscarinic acetylcholine receptor M3
Chain of Muscarinic acetylcholine receptor M3 (P20309 whole entry): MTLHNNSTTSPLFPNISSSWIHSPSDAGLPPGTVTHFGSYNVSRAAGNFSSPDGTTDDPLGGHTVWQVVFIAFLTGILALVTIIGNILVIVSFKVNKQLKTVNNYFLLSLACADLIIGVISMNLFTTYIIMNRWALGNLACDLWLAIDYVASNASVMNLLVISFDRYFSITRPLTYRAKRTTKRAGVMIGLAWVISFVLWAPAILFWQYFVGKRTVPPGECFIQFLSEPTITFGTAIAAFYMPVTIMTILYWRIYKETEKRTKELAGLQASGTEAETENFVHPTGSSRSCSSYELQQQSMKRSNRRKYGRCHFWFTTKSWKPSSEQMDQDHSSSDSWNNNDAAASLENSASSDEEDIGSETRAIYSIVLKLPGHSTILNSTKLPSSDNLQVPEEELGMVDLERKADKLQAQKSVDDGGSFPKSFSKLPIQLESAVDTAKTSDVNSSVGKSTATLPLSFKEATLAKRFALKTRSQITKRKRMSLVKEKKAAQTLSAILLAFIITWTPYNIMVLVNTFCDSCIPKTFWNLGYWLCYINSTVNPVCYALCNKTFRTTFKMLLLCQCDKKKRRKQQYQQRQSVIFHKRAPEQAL

[9] = target: T1, 5-hydroxytryptamine receptor 1D; assay: Binding affinity to cloned human 5-hydroxytryptamine 1D receptor
[10] = target: T4, Muscarinic acetylcholine receptor M1 (Homo sapiens, UniProt P11229); assay: as §1; remark: listed apart in the source
T4 sequence (P11229 whole entry): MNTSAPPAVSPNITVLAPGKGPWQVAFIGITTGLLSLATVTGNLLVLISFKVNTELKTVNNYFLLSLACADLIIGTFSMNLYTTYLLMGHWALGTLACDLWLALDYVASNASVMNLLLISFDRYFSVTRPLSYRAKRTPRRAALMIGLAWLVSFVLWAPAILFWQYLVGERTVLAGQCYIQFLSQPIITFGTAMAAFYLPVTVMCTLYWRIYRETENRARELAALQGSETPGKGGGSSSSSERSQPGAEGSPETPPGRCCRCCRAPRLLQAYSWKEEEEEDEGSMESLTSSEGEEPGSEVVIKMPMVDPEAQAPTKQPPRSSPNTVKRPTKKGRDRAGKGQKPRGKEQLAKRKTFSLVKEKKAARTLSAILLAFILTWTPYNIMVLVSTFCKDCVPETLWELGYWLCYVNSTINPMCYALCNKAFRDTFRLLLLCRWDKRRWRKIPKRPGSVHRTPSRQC

Chain of D(1A) dopamine receptor (P18901 whole entry): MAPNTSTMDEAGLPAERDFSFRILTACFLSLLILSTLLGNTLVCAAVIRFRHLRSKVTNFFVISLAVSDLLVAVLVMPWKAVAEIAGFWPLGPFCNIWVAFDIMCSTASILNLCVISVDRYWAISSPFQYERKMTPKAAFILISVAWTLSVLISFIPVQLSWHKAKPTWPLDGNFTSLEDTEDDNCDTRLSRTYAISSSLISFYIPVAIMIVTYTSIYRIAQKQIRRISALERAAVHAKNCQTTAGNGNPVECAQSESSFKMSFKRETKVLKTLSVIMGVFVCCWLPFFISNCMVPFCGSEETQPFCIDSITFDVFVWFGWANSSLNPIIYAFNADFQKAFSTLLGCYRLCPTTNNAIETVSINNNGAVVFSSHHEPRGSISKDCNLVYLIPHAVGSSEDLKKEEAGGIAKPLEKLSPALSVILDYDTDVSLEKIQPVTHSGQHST

Structure (SMILES)	Ki (D(1A) dopamine receptor) [µM]	Ki [1] [µM]	Ki [2] [µM]	Ki (D(2) dopamine receptor) [µM]	Ki (Histamine H1 receptor) [µM]	Ki [3] [µM]	Ki [4] [µM]	Ki [5] [µM]	Ki [6] [µM]	Ki (D(4) dopamine receptor) [nM]	Ki [7] [µM]	Ki [8] [µM]	Ki [9] [µM]	Ki [10] [µM]
CSc1ccc(N2CCN(Cc3c[nH]c4ncccc34)CC2)cc1	> 10	> 10	> 10	> 10	> 10	> 10	> 10	> 10	> 10	4.7	> 10	> 10	–	–
Fc1ccc(N2CCN(Cc3c[nH]c4ncccc34)CC2)cc1	> 10	> 10	–	> 10	> 10	> 10	> 10	> 10	> 10	2.3	> 10	> 10	> 10	–
C=Cc1ccc(N2CCN(Cc3c[nH]c4ncccc34)CC2)cc1	> 10	> 10	–	> 10	> 10	> 10	> 10	> 10	–	2.8	> 10	> 10	> 10	> 10
COc1ccccc1N1CCN(Cc2c[nH]c3ncccc23)CC1	> 10	> 10	> 10	0.438	> 10	> 10	> 10	> 10	> 10	1.4	> 10	> 10	–	–
c1ccc(-c2ccc(N3CCN(Cc4c[nH]c5ncccc45)CC3)cc2)cc1	> 10	> 10	> 10	> 10	> 10	> 10	> 10	> 10	–	148	> 10	> 10	–	> 10
CCc1ccc(N2CCN(Cc3c[nH]c4ncccc34)CC2)cc1	> 10	> 10	–	> 10	> 10	> 10	> 10	> 10	–	5	> 10	> 10	> 10	> 10
CCCc1ccc(N2CCN(Cc3c[nH]c4ncccc34)CC2)cc1	> 10	> 10	–	> 10	> 10	> 10	> 10	> 10	–	6.7	> 10	> 10	> 10	> 10
Fc1ccccc1N1CCN(Cc2c[nH]c3ncccc23)CC1	> 10	> 10	–	> 10	> 10	> 10	> 10	> 10	> 10	3.3	> 10	> 10	> 10	–
COc1ccc(N2CCN(Cc3c[nH]c4ncccc34)CC2)cc1	> 10	> 10	> 10	> 10	> 10	> 10	> 10	> 10	> 10	3.6	> 10	> 10	–	–
